From patent US20220339178A1, “COMPOSITIONS AND METHODS FOR COGNITIVE PROTECTION OF POLLINATORS AGAINST PESTICIDES” (priority 2019, published 2022)

What was measured:
[1] = system: bumblebee Bombus impatiens; test: Olfactory conditioning of PER in bumblebees: rutin vs imidacloprid; format: in vivo
Protocol: One colony of the bumblebee Bombus impatiens (Koppert Inc) was kept in laboratory conditions. Bees received pollen inside the nests and foraged to a 1M sugar-water feeder outside of the nest. Bees were collected while on the feeder and iced anesthetized to then be yolked restrained in plastic pipettes. Bees were maintained in the pipettes for the entire duration of the experiment (five days).
Control: 1M sugar water (20 μL) fed twice a day for three consecutive days;
Rutin: 1 μM Rutin (Sigma-Aldrich R5143) diluted in 1M sugar water (20 μL) fed twice a day for three days before training on the fourth day;
Imid: fed with 1M sugar water (20 μL) twice a day for three days and fed with 20 μL of 5 nM Imidacloprid (Prime Source LLC, IN, USA) in 1M sugar water 2 hours before training on the fourth day; and
Rutin+Imid: Bees fed with 1 μM Rutin diluted in 1M sugar water (20 μL) for three days before training and receiving 20 μL of 5 nM Imidacloprid in 1M sugar water 2 hours before training on the fourth day.
(§1) All bees were trained using olfactory conditioning of the proboscis extension response (PER). Briefly, bees were exposed to a presentation of 1-nonanol (Sigma-Aldrich) for 10 s. After 7 s of the onset of the odor presentation, the antenna was stimulated with 1.5 M sugar-water to elicit the PER. Following the PER, the bee was allowed to drink sugar-water for 3 s. Each paired presentation was considered a training trial and each individual received eleven training trials with an average intertrial interval of 10 minutes. After training, all bees were fed 20 μL of 1M sugar water and maintained in plastic boxes for 24 h until the retention test. […] Twenty-four hours after the last training trial the bees were presented with the conditioned odor for 10 s.
Performance for each individual was quantified as the number of conditioned PER responses across the trials. Thus, for each bee a score between zero and ten (0-10) was recorded.
Multiple comparisons were then run using Wilcoxon-tests between groups using single or two-tailed t-tests depending upon predictions (bees on all treatments were predicted to perform better than bees in the Imidacloprid group). Error due to multiple comparisons was controlled using the False Discovery Rate method (FDR-two stage sharpened method). In all cases corrected p-values are presented.
Acquisition learning (i.e. learning curves) was compared between bees fed with imidacloprid vs. protected bees using Repeated measures.
(§2) Retention was quantified as a nominal variable (yes/no). Data were compared across treatments using a Chi-square test, followed by multiple comparisons between pairs of treatments. Error due to multiple comparisons was controlled using the FDR as indicated above. In all cases corrected p-values are presented.
Latency was quantified as a continuous variable between 0.5 s and 10 s. Data were compared across treatments using an ANOVA following a Log transformation to normalize the distribution (Shapiro-Wilk W Test after log transformation: W=0.99, p=0.55), followed by multiple comparisons between groups using two-tailed t-test. Error due to multiple comparisons was controlled using the FDR method as indicated above. In all cases corrected p-values are presented.

[2] = system: bumblebee Bombus impatiens; test: Olfactory conditioning of PER in bumblebees: self-administered rutin vs chronic fipronil; format: in vivo; details: bumblebees; score 0-10; self-administered 1 μM rutin six days; 6 nM fipronil feeder for the last three days (chronic)
Protocol: One colony of the bumblebee Bombus impatiens (Koppert Inc) was kept in laboratory conditions. Bees received pollen inside the nests and foraged to a 1M sugar-water feeder outside of the nest. Bees were collected while on the feeder and iced anesthetized to then be randomly assigned to one of four plastic containers where self-administration of one of two solutions was allowed to 10 bees out of two feeders (glass vials with 500 μL of solution each): i) 1 M sucrose water or ii) 1 μM Rutin (Sigma-Aldrich R5143) diluted in 1M sucrose water. Feeders were refilled each day for three days. On the night of the third day, one of the vials was replaced by a new one with one of two solutions: i) 1 M sucrose water or ii) 1M sucrose water+6 nM fipronil. Feeders were refilled each day for three more days, thus providing a chronic exposure to fipronil. On the night of the […] day, bees were iced anesthetized and yolked restrained in plastic pipettes. Thus, bees belonged to one of four treatments:
Control: self-administered sucrose water for six days
Rut: self-administered rutin for six days
Fipro: self-administered sucrose water for three days followed by three days of self-administered sucrose water (one feeder) and fipronil (one feeder).
Rut+Fipro: self-administered rutin for three days followed by three days of self-administered rutin (one feeder) and fipronil (one feeder).
as §1, with “blind-trained” for “trained”
Learning for each individual was quantified as the number of conditioned PER responses across the trials. Thus, for each bee a learning score between zero and ten (0-10) was recorded.
Multiple comparisons were then run comparing learning score relative to Control bees using a non-parametric one or two-tailed Steel Method depending upon predictions. These comparisons informed us about the predicted impairment produced by the fipronil, the predicted innocuous effect of the rutin and the potential level of protection. Error due to multiple comparisons was controlled using the False Discovery Rate method (FDR-two stage sharpened method). In all cases corrected p-values (q-values) are presented.
as §2, with “Memory retention” for “Retention”, “comparisons” for “comparisons between pairs”, “all treatments vs. Control.” for “treatments.”, “p-values (q values)” for “p-values”
Latency was quantified as a continuous variable between 0.5 s and 10 s. […]

O=[N+]([O-])NC1=NCCN1Cc1ccc(Cl)nc1 [Imidacloprid]
learning across trials relative to Rutin+Imidacloprid bees ([1]; acquisition curves, repeated measures MANOVA): significantly lower
latency of response relative to Control bees ([1]; bumblebees): significantly longer
latency of response relative to bees fed with Rutin ([1]; bumblebees): significantly longer
latency of response relative to bees prophylactically fed with Rutin ([1]; bumblebees): not different
memory retention after 24 h relative to Control group ([1]; bumblebees): significantly lower
memory retention after 24 h relative to Rutin group ([1]; bumblebees): significantly lower
memory retention after 24 h relative to Rutin+Imidacloprid group ([1]; bumblebees): significantly lower
performance score relative to Control bees ([1]; bumblebees, score 0-10, rutin 1 μM twice a day for three days, imidacloprid 5 nM 20 μL 2 hours before training): significantly lower

C[C@@H]1O[C@@H](OC[C@H]2O[C@@H](Oc3c(-c4ccc(O)c(O)c4)oc4cc(O)cc(O)c4c3=O)[C@H](O)[C@@H](O)[C@@H]2O)[C@H](O)[C@H](O)[C@H]1O [Rutin]
learning score relative to Control bees [2]: not significantly different
